Data published in article PMC6367362, “MD001, a Novel Peroxisome Proliferator-activated Receptor α/γ Agonist, Improves Glucose and Lipid Metabolism” (Scientific Reports, 2019).

Experiments:
PPARβ/δ = molecular target: T1, PPARβ/δ (Homo sapiens, UniProt Q03181); assay: SPR analysis of binding to immobilised HA-PPARβ/δ; settings: N.B = No binding up to 500 μM
T1 construct: HA; made in house
T1 sequence (Q03181 1-441): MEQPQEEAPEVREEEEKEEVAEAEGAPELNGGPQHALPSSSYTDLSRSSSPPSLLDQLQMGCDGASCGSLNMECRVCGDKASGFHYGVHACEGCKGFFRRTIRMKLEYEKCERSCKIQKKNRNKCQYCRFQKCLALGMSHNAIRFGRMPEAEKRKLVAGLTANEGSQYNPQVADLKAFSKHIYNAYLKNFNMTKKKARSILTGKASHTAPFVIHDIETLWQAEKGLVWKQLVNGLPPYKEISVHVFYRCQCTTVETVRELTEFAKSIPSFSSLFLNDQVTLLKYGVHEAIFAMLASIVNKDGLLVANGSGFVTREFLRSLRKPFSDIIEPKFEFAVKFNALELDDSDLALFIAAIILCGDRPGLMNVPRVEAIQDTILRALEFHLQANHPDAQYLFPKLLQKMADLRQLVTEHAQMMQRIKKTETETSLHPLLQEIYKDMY
Description: SPR analysis was performed using a Reichert SR7500DC (Reichert Technologies, Depew, NY, USA). HA-PPARα, HA-PPARβ/δ, and HA-PPARγ were purified as previously described[23] and was immobilised on CMDH chips (Reichert Technologies) according to the manufacturer’s instructions. MD001 was loaded in a dose-dependent manner (31.25, 62.5, 125, 250, and 500 μM) for the SPR assay. The dissociation constant (KD) value was determined using the Scrubber2 program (Informer Technologies, Inc., Los Angeles, CA, USA).

[1] = test system: differentiated C2C12 myotubes; assay: In vitro glucose consumption assay, C2C12 myotubes; type: cell-based, mouse; settings: 10, 50 μM, 24 h
Description: (§1) Figure 3 MD001 promotes glucose consumption by induction of GLUT expression. HepG2 (A), differentiated 3T3-L1 adipocytes (B), and differentiated C2C12 myotubes (C) were treated with vehicle, MD001 (10, 50 μM), or rosiglitazone (rosi, 10 μM) for 24 h; glucose consumption was examined as described in the Methods section. Cells were harvested for total RNA isolation. Relative expression levels of GLUT2 (D) and GLUT4 (E,F) were quantitated using qRT-PCR. *, **, and ^† vs. vehicle. Data represent the mean ± SD of three independent experiments. *P < 0.05, **P < 0.01, and ^†P < 0.01.
(§2) The glucose consumption assay was performed as previously described. Briefly, cells were treated with MD001 or rosiglitazone […]. The conditioned medium from cultured cells was harvested and assayed for glucose content using a Glucose Colorimetric Assay Kit II (BioVision Inc., Milpitas, CA, USA).

[2] = test system: differentiated C2C12 myotubes; assay: qRT-PCR gene expression in differentiated C2C12 myotubes; type: cell-based, mouse; settings: 24 h
Description: as §1
Figure 4 MD001 stimulates fatty acid oxidation in vitro. […] Relative gene expressions were analysed by qRT-PCR. HepG2 (D), differentiated 3T3-L1 adipocytes (E), and differentiated C2C12 myotubes (F) were treated with vehicle, MD001 (10 μM), or WY14643 (WY) (10 μM) for 24 h and the fatty acid oxidation rate was analysed as described in the Methods section. […]
Total RNA was isolated using an RNeasy kit (Qiagen, Germantown, MD, USA) according to the manufacturer’s instructions. Complementary DNA (cDNA) was synthesised by reverse transcription using 0.5 μg of total RNA, and quantitative RT-PCR was performed using Power SYBR Green PCR Master Mix (ABI Thermo Fisher Scientific, Foster City, CA, USA) on a StepOne 48-well real-time PCR system (ABI/Thermo Fisher Scientific). […]

[3] = test system: differentiated 3T3-L1 adipocytes; assay: In vitro glucose consumption assay, 3T3-L1 adipocytes; type: cell-based, mouse; settings: 10, 50 μM, 24 h
Description: as §1, §2

db/db mice = assay: Oral once-daily administration to diabetic db/db mice
Description: (A) Changes in blood glucose levels was monitored in db/db mice administered once a day with vehicle, WY14643 (WY, 20 mg/kg), rosiglitazone (rosi, 20 mg/kg), or MD001 (n = 5–6 per group) as indicated. […] (D–M) The change in various blood metabolites was examined in db/db mice administered once a day with vehicle, WY14643 (WY), rosiglitazone (rosi), or MD001 (n = 5–6 per group). *, **, and ^#, vs. vehicle; ^†, vs. vehicle, MD001(5 mg/kg), and MD001(20 mg/kg). The data represent the mean ± S.D. *P < 0.05, **P < 0.01, ^#P < 0.001, and ^†P < 0.01.
Six-week-old C57BLKS/J-Lepr^db/Lepr^db or wild type C57BL/6J male mice were purchased from Orient Bio, Inc. (Seongnam, Korea) and acclimatised for one week. Mice were randomly grouped and orally administered with vehicle, WY14643 (20 mg/kg), rosiglitazone (20 mg/kg), or MD001 (5 mg/kg or 20 mg/kg) once a day for two months. […] Blood glucose levels were measured at the indicated time point using an OneTouch Ultra Blood Glucose Monitoring System (LifeScan, Inc., Milpitas, CA, USA).
Livers and blood samples were collected from mice in each group.
Tissues specimens including liver, perigonadal adipose tissue, skeletal muscle, spleen, kidney, and heart, were collected from mice in each group, fixed in 10% formalin, and embedded into paraffin. Tissue sections (5 μm) were stained with haematoxylin and eosin (H&E).

wild type C57BL/6J mice = assay: Toxicity study in wild type C57BL/6J mice; type: in vivo, mouse; settings: wild type C57/BL6 mice, 50 or 100 mg/kg MD001 for eight weeks
Description: Supplementary Table S4. Laboratory findings in control and MD001-treated mice
Results are expressed as the mean ( ± SD).
ALT, alanine transaminase; AST, aspartate transaminase; BUN, blood urea nitrogen; WBC, white blood cells.
Supplementary Table S5. Crystal data and structure refinement for 4a
Identification code exp_524
Empirical formula C27H22O5
Crystal system monoclinic

[4] = db/db mice, 60 days, rosiglitazone 20 mg/kg, MD001 5 and 20 mg/kg
[5] = db/db mice, once a day for 60 days, rosiglitazone 20 mg/kg
[6] = db/db mice, 20 mg/kg, 60 days, qRT-PCR
[7] = db/db mice, 20 mg/kg, qRT-PCR and immunoblot

With Cc1c(O)cc(O)c2c(-c3ccccc3)c(C(=O)/C=C/c3ccccc3)c(=O)oc12 [MD001] the “KD (M), second row of Supplementary Table S3 (PPARβ/δ)” value (PPARβ/δ) was “N.B”, the glucose consumption [1] was “significantly increased glucose consumption in a dose-dependent manner” and the “expression levels of ACOX and CPT” value ([2]; 10 μM) was “significantly increased”. For the same compound, the “expression of glucose transporter GLUT4” value ([2]; 10, 50 μM) was “significantly increased”, the glucose consumption [3] was “significantly increased glucose consumption in a dose-dependent manner” and the “blood glucose levels in intraperitoneal insulin tolerance test (IPITT)” value (db/db mice; db/db mice) was “lowered”. The body weight gain (db/db mice; db/db mice, 60 days, compared to vehicle) was “no induction of body weight gain”, the RBC count (db/db mice; [4]) was “did not decrease” and the “haematocrit (HCT) level” value (db/db mice; [4]) was “did not decrease”. For the same compound, the “haemoglobin (Hb) level” value (db/db mice; [4]) was “did not decrease”, the “number of large fat cells (>150 μm in diameter)” value (db/db mice; db/db mice, adipose tissue H&E) was “significantly reduced” and the “number of medium fat cells (100~150 μm in diameter)” value (db/db mice; db/db mice, adipose tissue H&E) was “significantly increased”. For the same compound, the “number of small fat cells (<100 μm in diameter)” value (db/db mice; db/db mice, adipose tissue H&E) was “significantly increased”, the “increase in fat mass as compared to the vehicle control” value (db/db mice; [5]) was “no increase” and the “increase in liver weight as compared to the vehicle control” value (db/db mice; [5]) was “no increase”. The HDL levels (db/db mice; db/db mice, oral once a day) was “increased”, the LDL levels (db/db mice; db/db mice, oral once a day) was “significantly decreased” and the “blood FFA” value (db/db mice; db/db mice, oral once a day) was “significantly decreased”. The “blood TG” value (db/db mice; db/db mice, oral once a day) was “significantly decreased”, the “blood alanine aminotransferase (ALT) levels” value (db/db mice; db/db mice, oral once a day) was “significantly reduced” and the “blood aspartate aminotransferase (AST) levels” value (db/db mice; db/db mice, oral once a day) was “significantly reduced”. For the same compound, the blood insulin (db/db mice; db/db mice, oral once a day) was “significantly decreased”, the “serum adiponectin (Acrp30) levels” value (db/db mice; db/db mice, oral once a day) was “increased” and the total cholesterol levels (db/db mice; db/db mice, oral once a day) was “did not affect”. For the same compound, the blood glucose levels (db/db mice; db/db mice, oral once a day, MD001 5 or 20 mg/kg, WY14643 20 mg/kg, rosiglitazone 20 mg/kg) was “significantly decreased blood glucose levels in a dose-dependent manner”, the “hepatic FFA” value (db/db mice; db/db mice, 20 mg/kg) was “significantly reduced” and the “hepatic TG” value (db/db mice; db/db mice, 20 mg/kg) was “significantly reduced”. For the same compound, the “hepatic steatosis (H&E staining of liver)” value (db/db mice; db/db mice, 20 mg/kg) was “reduction in size and number of hepatic lipid droplets in a dose-dependent manner”, the “diameter of the glomerular capsule” value (db/db mice; db/db mice, 20 mg/kg once a day for 60 days) was “significantly reduced” and the “expression of PEPCK and G6Pase in the liver” value (db/db mice; db/db mice, 20 mg/kg once a day for 60 days, qRT-PCR) was “decreased”. The “H&E staining of skeletal muscle” value (db/db mice; db/db mice, 20 mg/kg, 60 days, compared among vehicle and treated groups) was “no differences”, the “expression of inflammatory genes TNFα, MCP-1 and macrophage-marker genes CD11b, CD11c” value (db/db mice; [6]) was “decreased” and the “liver expression of hepatic lipogenesis genes ADD1, ACC, FAS” value (db/db mice; [6]) was “decreased”. The “skeletal muscle expression of ACOX, CPT, MLYCD, GLUT4, and LPL” value (db/db mice; [6]) was “significantly increased”, the “adipose tissue expression of ACOX, CPT, GLUT4, and CD36” value (db/db mice; [7]) was “significantly increased” and the “liver expression of target genes of PPARα (ACOX, CPT, MLYCD) and PPARγ (GLUT2, GK, CD36)” value (db/db mice; [7]) was “significantly increased”. For the same compound, the “blood glucose levels in oral glucose tolerance test (OGTT)” value (db/db mice; db/db mice, glucose 1 g/kg, eight weeks after drug administration) was “significantly decreased”, the food ingestion (db/db mice; wild type C57BL/6J and db/db mice, 3-day food intake) was “without changes in food ingestion” and the “liver and kidney toxicities” value (wild type C57BL/6J mice) was “not observed”. For the same compound, the “white blood cell counts and haemoglobin (toxicology study)” value (wild type C57BL/6J mice) was “no differences” and the body weight change (wild type C57BL/6J mice; data not shown) was “no significant differences”.
